Measurements: patent publication US20220354862A1, “LIPOSOME DELIVERY OF PSYCHEDELICS” (Mind Medicine, Inc., priority 2021, published 2022)

What was measured:
[1] = Pharmacokinetic evaluation in rats after bolus IV administration (noribogaine in plasma); format: in vivo, Sprague Dawley rats
Protocol: Pharmacokinetic Evaluation of the Tissue Distribution of Two Test Articles (Noribogaine and BTLS (Brain-Targeted Liposomes)-Noribogaine) in Rats
This study was conducted in adult male Sprague Dawley rats, weighing 250-275 g on arrival. Animals were housed according to the vivarium SOP on a 12-hr light cycle with food and water ad libitum.
72 rats were divided into 12 groups of 6. Test articles were dosed at 10 mg/kg of active substance (generic and liposomal formulation) and administered IV through the tail vein as a bolus. Animals were sampled for 24 hours after administration. Terminal blood and tissue samples (brain, heart, kidney, liver) were collected at 0.08, 0.25, 1, 2, 4 and 8 hours after the dose. The study compared the two groups, noribogaine and BTLS-noribogaine formulation. Concentration of noribogaine in the plasma and tissues was measured ex vivo and pharmacokinetic analysis was performed.

hERG potassium channels = hERG potassium channels (Homo sapiens, UniProt Q12809); conditions: high doses; cited from earlier work
heroin addict = conditions: oral, cited from earlier work

hERG potassium channels, sequence (Q12809 whole entry): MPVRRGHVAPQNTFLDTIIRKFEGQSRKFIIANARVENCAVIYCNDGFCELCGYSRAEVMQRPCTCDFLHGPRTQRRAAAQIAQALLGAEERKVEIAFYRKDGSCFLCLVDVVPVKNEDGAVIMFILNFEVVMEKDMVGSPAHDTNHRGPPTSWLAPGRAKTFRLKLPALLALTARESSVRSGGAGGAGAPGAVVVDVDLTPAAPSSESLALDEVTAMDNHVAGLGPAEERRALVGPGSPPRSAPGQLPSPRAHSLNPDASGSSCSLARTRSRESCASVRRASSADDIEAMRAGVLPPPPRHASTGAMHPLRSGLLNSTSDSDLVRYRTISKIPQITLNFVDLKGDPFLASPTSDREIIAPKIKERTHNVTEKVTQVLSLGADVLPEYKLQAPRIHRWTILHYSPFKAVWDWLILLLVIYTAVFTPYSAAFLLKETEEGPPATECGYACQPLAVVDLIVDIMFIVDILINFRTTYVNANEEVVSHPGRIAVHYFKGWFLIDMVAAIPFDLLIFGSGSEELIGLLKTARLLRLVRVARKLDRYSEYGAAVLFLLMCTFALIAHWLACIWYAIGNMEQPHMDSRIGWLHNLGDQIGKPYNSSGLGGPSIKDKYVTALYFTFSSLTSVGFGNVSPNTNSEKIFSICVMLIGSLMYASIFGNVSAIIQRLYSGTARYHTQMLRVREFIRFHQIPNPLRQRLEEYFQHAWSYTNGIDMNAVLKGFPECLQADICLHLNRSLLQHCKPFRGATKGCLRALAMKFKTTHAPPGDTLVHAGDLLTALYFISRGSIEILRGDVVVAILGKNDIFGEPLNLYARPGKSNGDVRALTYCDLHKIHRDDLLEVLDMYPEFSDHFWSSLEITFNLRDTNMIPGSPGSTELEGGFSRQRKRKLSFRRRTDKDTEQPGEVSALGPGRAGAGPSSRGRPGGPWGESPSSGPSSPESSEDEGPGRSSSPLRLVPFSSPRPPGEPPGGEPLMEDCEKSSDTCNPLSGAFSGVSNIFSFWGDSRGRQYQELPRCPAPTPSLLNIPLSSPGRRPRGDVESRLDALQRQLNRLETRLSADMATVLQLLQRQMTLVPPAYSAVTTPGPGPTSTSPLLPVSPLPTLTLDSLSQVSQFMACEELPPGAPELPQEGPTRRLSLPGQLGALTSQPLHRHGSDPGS

Work on `CC[C@H]1C[C@H]2C[C@H]3c4[nH]c5ccc(O)cc5c4CCN(C2)[C@@H]13` [NOR, noribogaine] yielded a Cl ([1]; rat) of 0.0064 mL/h, a Vss ([1]; rat) of 0.0119 mL and a Cmax ([1]; rat plasma) of 223.6 ng/mL. For the same molecule, the T_half ([1]; rat plasma) was 1.4558 h, the Tmax ([1]; rat plasma) was 30 min and the “Cardiotoxicity: long QT syndrome / hERG block” value (hERG potassium channels) was “cause long QT syndrome by blocking hERG potassium channels”.
For ibogaine, the “Treatments effective, share of cases” value (heroin addict; 6 mg/kg to 19 mg/kg) is listed as 71%, the “Duration of effect of a series of 4 treatments” value (heroin addict; series of 4 treatments) is listed as “approximately 3 years” and the “Duration of effect of a single treatment” value (heroin addict; single treatment) is listed as “about 6 months”. For the same molecule, the minimum effective dose (heroin addict) was 400 mgs.
